Measured values as given in ChEMBL document CHEMBL4665742 (J Nat Prod, 2020).
Calls of active or inactive are those of the source. The rule behind the calls is not given here.

Columns and labels:
[1] = tested on: SK-N-BE(2)-M17; assay: Antiproliferative activity against human SK-N-BE(2)-M17 cells after 24 hrs; type: functional
[2] = tested on: SK-N-AS; assay: Antiproliferative activity against human SK-N-AS cells after 24 hrs; type: functional
[3] = tested on: SK-N-FI; assay: Antiproliferative activity against human SK-N-FI cells after 24 hrs; type: functional
[4] = tested on: SK-N-FI; assay: Induction of apoptosis in human SK-N-FI cells assessed as PARP cleavage at 12.5 to 50 uM after 6 to 24 hrs by […]; type: functional, cell-based; conditions: dose microM 12.5-50, time hrs 6-24
[5] = tested on: SK-N-BE(2)-M17; assay: Induction of apoptosis in human SK-N-BE(2)-M17 cells assessed as PARP cleavage at 12.5 to 50 uM after 6 to 24 hrs by […]; type: functional, cell-based; conditions: dose microM 12.5-50, time hrs 6-24
[6] = tested on: Kelly; assay: (§1) Antiproliferative activity against human Kelly cells after 24 hrs; type: functional
[7] = as §1; type: functional; conditions: read-out: ED50 (the source's name)
[8] = tested on: SK-N-AS; assay: Induction of apoptosis in human SK-N-AS cells assessed as PARP cleavage at 12.5 to 50 uM after 6 to 24 hrs by […]; type: functional, cell-based; conditions: dose microM 12.5-50, time hrs 6-24
[9] = tested on: Kelly; assay: Induction of apoptosis in human Kelly cells assessed as PARP cleavage at 12.5 to 50 uM after 6 to 24 hrs by […]; type: functional, cell-based; conditions: dose microM 12.5-50, time hrs 6-24
[10] = read-out: ED50 (the source's name)

Row | EC50 [1, 10] | EC50 [2, 10] | EC50 [3, 10] | Compound | Activity [1] | Activity [2] | Activity [3] | Activity [4] | Activity [5] | Activity [6] | EC50 [7] | Activity [8] | Activity [9]
1 |  |  |  | NCCCC(N)(C(=O)O)C(F)F (stereo not given) | Dose-dependent effect | Dose-dependent effect | Dose-dependent effect |  |  |  |  |  | 
2 | 10.3 µM | 19.5 µM | 18.1 µM | C=CCS[S+]([O-])CC=C (stereo not given) [ALLICIN] | Dose-dependent effect | Dose-dependent effect | Dose-dependent effect | Active | Active | Dose-dependent effect | 9.21 µM | Active | Active
